Each structure is given as a SMILES string. pIC50: −log10 of the molar value.

For test [1], the target named is T1, factor VIIa (Homo sapiens, UniProt P08709).
T1 sequence (P08709 213-466 limits assumed): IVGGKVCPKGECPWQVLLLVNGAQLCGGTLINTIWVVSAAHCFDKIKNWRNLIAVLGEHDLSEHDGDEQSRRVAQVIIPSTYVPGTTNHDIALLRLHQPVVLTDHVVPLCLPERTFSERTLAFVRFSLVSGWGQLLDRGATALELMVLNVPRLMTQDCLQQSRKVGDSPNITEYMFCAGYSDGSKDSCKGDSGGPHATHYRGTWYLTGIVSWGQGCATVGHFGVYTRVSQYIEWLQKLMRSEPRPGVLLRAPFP
T1 sequence (P08709 61-212 limits assumed): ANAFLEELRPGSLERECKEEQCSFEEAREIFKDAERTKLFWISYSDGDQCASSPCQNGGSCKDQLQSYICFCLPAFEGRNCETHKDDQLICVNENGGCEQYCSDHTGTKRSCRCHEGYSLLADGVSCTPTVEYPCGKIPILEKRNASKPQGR
Nature of the test: Inhibition of factor VIIa. It counts as biochemical. An excerpt:
Coagulation factor VIIa initiates the extrinsic part of the coagulation cascade after binding to tissue factor and contributes to the activation of factor X to give factor Xa. Inhibition of factor VIIa thus prevents the formation of factor Xa and thus subsequent thrombin formation. The inhibition of factor VIIa by the compounds according to the invention and the measurement of the anticoagulant and antithrombotic activity can be determined by conventional in-vitro or in-vivo methods. A conventional method for the measurement of the inhibition of factor VIIa is described, for example, by H. F. Ronning et al. in Thrombosis Research 1996, 84, 73-81.

Test [2] deals with factor Xa (Homo sapiens, UniProt P00742). Nature of the test: Inhibition of factor Xa. It counts as biochemical. The source says: The inhibition of factor Xa by the compounds according to the invention and the measurement of the anticoagulant and antithrombotic activity can be determined by conventional in-vitro or in-vivo methods. A suitable method is described, for example, by J. Hauptmann et al. in Thrombosis and Haemostasis 1990, 63, 220-223.
The inhibition of factor Xa can be measured, for example, by the method of T. Hara et al. in Thromb. Haemostas. 1994, 71, 314-319.

Sequence of factor Xa (P00742 235-488 limits assumed): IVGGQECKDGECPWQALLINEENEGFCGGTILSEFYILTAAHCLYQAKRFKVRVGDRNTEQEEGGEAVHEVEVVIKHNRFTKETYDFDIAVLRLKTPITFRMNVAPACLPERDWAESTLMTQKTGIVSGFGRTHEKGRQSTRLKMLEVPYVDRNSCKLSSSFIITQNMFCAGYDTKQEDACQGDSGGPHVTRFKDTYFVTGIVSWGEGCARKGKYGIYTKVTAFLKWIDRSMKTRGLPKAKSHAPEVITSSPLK
Sequence of factor Xa (P00742 41-179 limits assumed): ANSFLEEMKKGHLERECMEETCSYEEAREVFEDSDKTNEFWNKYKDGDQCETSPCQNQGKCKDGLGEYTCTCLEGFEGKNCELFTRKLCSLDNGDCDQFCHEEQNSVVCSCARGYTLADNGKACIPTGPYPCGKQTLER

`N=C(N)c1cccc(OC(C(=O)Nc2ccc(N3CCOCC3)cc2)c2ccccc2)c1` (stereo not shown) [2-(3-amidinophenoxy)-N-(4-morpholin-4-ylphenyl)-2-phenylacetamide]: the values for the pIC50 in test [1] and in test [2] were 7.22 and 7.05, respectively.
For `CCCC(Oc1cccc(C(=N)N)c1)C(=O)Nc1ccc(N2CCOCC2)cc1` (stereo not shown) [2-(3-amidinophenoxy)-N-(4-morpholin-4-ylphenyl)valeramide], the pIC50 (usually the IC50 on a negative log10 scale, so that one unit is a factor of ten) in test [1] is 6.31; in test [2], 6.52.
For `CCCC(Oc1cccc(C(=N)N)c1)C(=O)Nc1ccc(N2CCCCC2=O)cc1` (stereo not shown) [2-(3-amidinophenoxy)-N-[4-(2-oxopiperidin-1-yl)phenyl]valeramide] the same measures were 7.48 and 7.15.
For `N=C(N)c1cccc(OC(C(=O)Nc2ccc(N3CCCC3=O)cc2)c2ccccc2)c1` (stereo not shown) [2-(3-amidinophenoxy)-N-[4-(2-oxopyrrolidin-1-yl)phenyl]-2-phenylacetamide] the same measures were 7.41 and 7.19.
`CCCC(Oc1cccc(C(=N)N)c1)C(=O)Nc1ccc(N2CCCC2=O)cc1` (stereo not shown) [2-(3-amidinophenoxy)-N-[4-(2-oxopyrrolidin-1-yl)phenyl]valeramide]: the figures for the pIC50 in test [1] and in test [2] were 7.08 and 6.89, respectively.
As for `CC(C)CC(Nc1cccc(C(=N)N)c1)C(=O)Nc1ccc(N(C)C)cc1` (stereo not shown) [2-(3-amidinophenylamino)-N-(4-dimethylaminophenyl)-4-methylvaleramide], the figures for the pIC50 in test [1] and in test [2] were 7.68 and 6.80, respectively.
In the case of `N=C(N)c1cccc(NC(C(=O)Nc2ccc(N3CCOCC3)cc2)c2ccccc2)c1` (stereo not shown) [2-(3-amidinophenylamino)-N-(4-morpholin-4-ylphenyl)-2-phenylacetamide], the pIC50 in test [1] was 7.66; in test [2] it was 7.47.
As to `N=C(N)c1cccc(OC(C(=O)Nc2ccc(N3CCCCC3=O)cc2)c2ccccc2)c1` (stereo not shown) [EMD 388547, 2-(3-amidinophenoxy)-N-[4-(2-oxopiperidin-1-yl)phenyl]-2-phenylacetamide], the pIC50 in test [1] is 7.85; in test [2], 7.49.

(Values after patent publication US7273867B2, “Phenyl derivatives” (Merck Patent GmbH, priority 2001, dated 2007).)
